According to PubChem BioAssay AID306 (DTP/NCI, 2004):
Values joined by “and” are separate entries in the source; they are usually repeats but may differ in a detail not shown here. Equal entries are not always repeated. Inconclusive results and toxic doses are left out.

Tested on: BDF1 mice, L1210 Methyl-GAG-resistant leukemia, survival T/C
Test: NCI In Vivo Anticancer Drug Screen. Data for tumor model L1210 Leukemia resistant to Methyl-GAG; NSC 32946 (subcutaneous) in B6D2F1 (BDF1) mice
Details: endpoint: mean survival time, higher = longer survival
Method: The antitumor activity of compounds was measured in mice bearing transplantable tumors. Survival or tumor size were measured and the results are expressed as the measurement made in the treated group (T) divided by the measurement made in the vehicle treated control group (C). The tumor model used in this assay is L1210 Leukemia resistant to Methyl-GAG; NSC 32946 (subcutaneous) in B6D2F1 (BDF1) mice

[1] = dose: 125.0 mg/kg/injection, schedule: Q01DX Z (ip), vehicle: saline
[2] = dose: 250.0 mg/kg/injection, schedule: Q01DX Z (ip), vehicle: saline
[3] = dose: 500.0 mg/kg/injection, schedule: Q01DX Z (ip), vehicle: saline
[4] = dose: 8.0 mg/kg/injection, schedule: Q01DX Z (ip), vehicle: carboxymethylcellulose (CMC)
[5] = dose: 16.0 mg/kg/injection, schedule: Q01DX Z (ip), vehicle: carboxymethylcellulose (CMC)
[6] = dose: 31.0 mg/kg/injection, schedule: Q01DX Z (ip), vehicle: carboxymethylcellulose (CMC)
[7] = dose: 0.06 mg/kg/injection, schedule: Q01DX Z (ip), vehicle: saline
[8] = dose: 0.12 mg/kg/injection, schedule: Q01DX Z (ip), vehicle: saline
[9] = dose: 0.25 mg/kg/injection, schedule: Q01DX Z (ip), vehicle: saline
[10] = dose: 0.5 mg/kg/injection, schedule: Q01DX Z (ip), vehicle: saline
[11] = dose: 1.9 mg/kg/injection, schedule: Q01DX Z (ip), vehicle: carboxymethylcellulose (CMC)

CCOC(N)=O
T/C [1]: 99 % of control | T/C [2]: 89 % of control | T/C [3]: 101 % of control | T/C (dose: 1000.0 mg/kg/injection, schedule: Q01DX Z (ip), vehicle: saline): 90 % of control

O=C(O)CCCc1ccc(N(CCCl)CCCl)cc1
T/C (dose: 6.25 mg/kg/injection, schedule: Q01DX Z (ip), vehicle: carboxymethylcellulose (CMC)): 91 % of control | T/C (dose: 12.5 mg/kg/injection, schedule: Q01DX Z (ip), vehicle: carboxymethylcellulose (CMC)): 98 % of control | T/C (dose: 25.0 mg/kg/injection, schedule: Q01DX Z (ip), vehicle: carboxymethylcellulose (CMC)): 104 % of control

N=C(N)c1ccc(Nc2ccc(C(=N)N)cc2)cc1
T/C (dose: 3.1 mg/kg/injection, schedule: Q01DX Z (ip), vehicle: methylcellulose (MC)): 98 % of control and 102 % of control | T/C (dose: 6.25 mg/kg/injection, schedule: Q01DX Z (ip), vehicle: methylcellulose (MC)): 107 % of control | T/C (dose: 6.3 mg/kg/injection, schedule: Q01DX Z (ip), vehicle: methylcellulose (MC)): 93 % of control | T/C (dose: 12.5 mg/kg/injection, schedule: Q01DX Z (ip), vehicle: methylcellulose (MC)): 97 % of control

CN(C)CC(=O)c1ccc(O)c(O)c1
T/C (dose: 31.25 mg/kg/injection, schedule: Q01DX Z (ip), vehicle: saline): 98 % of control | T/C (dose: 62.5 mg/kg/injection, schedule: Q01DX Z (ip), vehicle: saline): 96 % of control | T/C [1]: 99 % of control | T/C [2]: 99 % of control and 100 % of control | T/C [3]: 97 % of control and 106 % of control

OCC1OC(n2cnc3c(=S)nc[nH]c32)C(O)C1O (centres undefined)
T/C (dose: 2.0 mg/kg/injection, schedule: Q01DX Z (ip), vehicle: carboxymethylcellulose (CMC)): 100 % of control | T/C (dose: 4.0 mg/kg/injection, schedule: Q01DX Z (ip), vehicle: carboxymethylcellulose (CMC)): 100 % of control | T/C [4]: 107 % of control | T/C [5]: 115 % of control | T/C [6]: 120 % of control | T/C (dose: 500.0 mg/kg/injection, schedule: Q01DX Z (ip), vehicle: carboxymethylcellulose (CMC)): 93 % of control

C[C@]12CC[C@H](OC3OC(CO)C(O)C(O)C3O)C[C@H]1CC[C@@H]1[C@@H]2CC[C@]2(C)[C@@H](C3=CCOC3=O)CC[C@]12O (some centres undefined)
T/C [7]: 94 % of control | T/C [8]: 92 % of control | T/C [9]: 91 % of control | T/C [10]: 91 % of control | T/C (dose: 4.0 mg/kg/injection, schedule: Q01DX Z (ip), vehicle: saline): 90 % of control | T/C (dose: 16.0 micrograms/kg/injection, schedule: Q01DX Z (ip), vehicle: saline): 97 % of control | T/C (dose: 32.0 micrograms/kg/injection, schedule: Q01DX Z (ip), vehicle: saline): 102 % of control | T/C (dose: 1000.0 micrograms/kg/injection, schedule: Q01DX Z (ip), vehicle: saline): 107 % of control | T/C (dose: 2000.0 micrograms/kg/injection, schedule: Q01DX Z (ip), vehicle: saline): 105 % of control

COC12C(COC(N)=O)C3=C(C(=O)C(C)=C(N)C3=O)N1CC1C2N1C (centres undefined)
T/C (dose: 2.5 mg/kg/injection, schedule: Q01DX Z (ip), vehicle: carboxymethylcellulose (CMC)): 96 % of control | T/C (dose: 5.0 mg/kg/injection, schedule: Q01DX Z (ip), vehicle: carboxymethylcellulose (CMC)): 103 % of control | T/C (dose: 10.0 mg/kg/injection, schedule: Q01DX Z (ip), vehicle: carboxymethylcellulose (CMC)): 122 % of control | T/C (dose: 20.0 mg/kg/injection, schedule: Q01DX Z (ip), vehicle: carboxymethylcellulose (CMC)): 88 % of control

COc1cc2c(c(OC)c1OC)-c1ccc(OC)c(=O)cc1[C@@H](NC(C)=O)CC2
T/C [8]: 95 % of control | T/C [9]: 96 % of control | T/C [10]: 101 % of control

C[C@]12CCC(=O)C=C1CC[C@@H]1[C@@H]2C(=O)C[C@@]2(C)[C@H]1CC[C@]2(O)C(=O)CO
T/C (dose: 6.25 mg/kg/injection, schedule: Q01DX Z (sc), vehicle: steriod suspending solution): 100 % of control | T/C (dose: 25.0 mg/kg/injection, schedule: Q01DX Z (sc), vehicle: steriod suspending solution): 102 % of control | T/C (dose: 62.5 mg/kg/injection, schedule: Q01DX Z (sc), vehicle: steriod suspending solution): 121 % of control | T/C (dose: 100.0 mg/kg/injection, schedule: Q01DX Z (sc), vehicle: steriod suspending solution): 113 % of control | T/C (dose: 400.0 mg/kg/injection, schedule: Q01DX Z (sc), vehicle: steriod suspending solution): 116 % of control

CCn1cnc2c(=S)nc[nH]c21
T/C [4]: 113 % of control | T/C [5]: 106 % of control | T/C [6]: 120 % of control

O=C(Nc1ccc(C2=NCCCN2)cc1)c1ccc(NC(=O)c2ccc(C3=NCCCN3)cc2)cc1
T/C (dose: 0.24 mg/kg/injection, schedule: Q01DX Z (ip), vehicle: carboxymethylcellulose (CMC)): 97 % of control | T/C (dose: 0.47 mg/kg/injection, schedule: Q01DX Z (ip), vehicle: carboxymethylcellulose (CMC)): 101 % of control | T/C (dose: 0.95 mg/kg/injection, schedule: Q01DX Z (ip), vehicle: carboxymethylcellulose (CMC)): 104 % of control | T/C [11]: 98 % of control | T/C (dose: 1.95 mg/kg/injection, schedule: Q01DX Z (ip), vehicle: carboxymethylcellulose (CMC)): 175 % of control and 192 % of control | T/C (dose: 3.9 mg/kg/injection, schedule: Q01DX Z (ip), vehicle: carboxymethylcellulose (CMC)): 169 % of control and 232 % of control | T/C (dose: 7.8 mg/kg/injection, schedule: Q01DX Z (ip), vehicle: carboxymethylcellulose (CMC)): 216 % of control | T/C (dose: 15.6 mg/kg/injection, schedule: Q01DX Z (ip), vehicle: carboxymethylcellulose (CMC)): 112 % of control and 122 % of control

[I][Hg][CH2]C1COC([CH2][Hg][I])CO1 (centres undefined)
T/C [11]: 102 % of control | T/C (dose: 3.75 mg/kg/injection, schedule: Q01DX Z (ip), vehicle: carboxymethylcellulose (CMC)): 95 % of control | T/C (dose: 7.5 mg/kg/injection, schedule: Q01DX Z (ip), vehicle: carboxymethylcellulose (CMC)): 102 % of control | T/C (dose: 15.0 mg/kg/injection, schedule: Q01DX Z (ip), vehicle: carboxymethylcellulose (CMC)): 113 % of control | T/C (dose: 30.0 mg/kg/injection, schedule: Q01DX Z (ip), vehicle: carboxymethylcellulose (CMC)): 150 % of control | T/C (dose: 60.0 mg/kg/injection, schedule: Q01DX Z (ip), vehicle: carboxymethylcellulose (CMC)): 107 % of control

CSCS(=O)C[C@H](CO)NC(=O)/C=C/c1c(C)[nH]c(=O)[nH]c1=O (some centres undefined)
T/C [7]: 97 % of control | T/C [8]: 97 % of control | T/C [9]: 106 % of control and 113 % of control | T/C [10]: 112 % of control | T/C (dose: 1.0 mg/kg/injection, schedule: Q01DX Z (ip), vehicle: saline): 96 % of control

CS(=O)(=O)OCCCCOS(C)(=O)=O
T/C (dose: 0.4 mg/kg/injection, schedule: Q01DX Z (ip), vehicle: methylcellulose (MC)): 102 % of control | T/C (dose: 1.6 mg/kg/injection, schedule: Q01DX Z (ip), vehicle: methylcellulose (MC)): 102 % of control | T/C (dose: 3.2 mg/kg/injection, schedule: Q01DX Z (ip), vehicle: methylcellulose (MC)): 86 % of control | T/C (dose: 6.4 mg/kg/injection, schedule: Q01DX Z (ip), vehicle: methylcellulose (MC)): 88 % of control and 102 % of control

O=P1(N(CCCl)CCCl)NCCCO1 (centres undefined)
T/C (dose: 6.25 mg/kg/injection, schedule: Q01DX Z (ip), vehicle: saline): 93 % of control | T/C (dose: 12.5 mg/kg/injection, schedule: Q01DX Z (ip), vehicle: saline): 122 % of control and 123 % of control | T/C (dose: 25.0 mg/kg/injection, schedule: Q01DX Z (ip), vehicle: saline): 254 % of control and 151 % of control | T/C (dose: 50.0 mg/kg/injection, schedule: Q01DX Z (ip), vehicle: saline): 257 % of control and 98 % of control | T/C (dose: 100.0 mg/kg/injection, schedule: Q01DX Z (ip), vehicle: saline): 90 % of control and 98 % of control
